Assay results: patent US12612411B1, “Imidazopyrazine derivatives, process for preparation thereof, and their uses as luciferins” (INSTITUT PASTEUR, priority 2017, dated 2026)

Molecular target: T1, nanoKAZ luciferase (Oplophorus gracilirostris, UniProt Q9GV45, A31E/A60N/A81I/F95D/I117V/K70R/L54V/L99Q/M102K/N193R/P142E/Q151K/Q38R/Q45L/V71I/Y165I)
T1 construct: luciferase catalytic domain (nanoKAZ, 19 kDa) from the Oplophorus-derived luciferase; host or cells: cell-free: 1-Step Human Coupled IVT Kit, pT7CFE1-based vector
T1 sequence (Q9GV45 other isoform, or with tags, fused parts or gaps with the stated changes): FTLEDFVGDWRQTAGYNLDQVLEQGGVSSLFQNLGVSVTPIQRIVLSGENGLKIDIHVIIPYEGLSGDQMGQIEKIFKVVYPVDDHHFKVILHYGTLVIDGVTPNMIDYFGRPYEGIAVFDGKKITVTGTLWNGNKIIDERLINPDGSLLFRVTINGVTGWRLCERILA
Assay: In vitro bioluminescence screening of imidazo[1,2-a]pyrazin-3(7H)-ones with nanoKAZ expressed in vitro (96-well luminometer, 2 h kinetic)
Type: biochemical
Conditions: Table 1; furimazine = 1
Description: General protocol for the generation of solutions of imidazo[1,2-a]pyrazin-3(7H)-one Q by acidic hydrolysis of imidazo[1,2-a]pyrazin-3-yl acetate derivatives P. The considered acetate P (1 mg) was dissolved in DMSO (0.2 mL) and then diluted by adding a solution of acidic ethanol (0.3 ml) made from the addition of 37% hydrochloric acid (100 μl) on 100% ethanol (12 mL). This 0.5 mL solution was incubated at 50° C. for 2 hours to give a stock solution which was then stored at −80° C. […] Nota: these conditions are only adapted to the hydrolysis of the protecting group (as defined above) of the oxygen on position 2 of the imidazo[1,2-a]pyrazine ring system and not to the hydrolysis of any additional acetyl groups eventually present elsewhere on the substrate of this reaction.
The representative bioluminescence curves shown in the FIG. 2 provided an assessment for furimazine (Q-1), 8-benzyl-2-(furan-2-ylmethyl)-6-(4-hydroxyphenyl)imidazo[1,2-a]pyrazin-3 (7/1)-one (Q-80), 8-(2-fluorobenzyl)-2-(furan-2-ylmethyl)-6-phenylimidazo[1,2-a]pyrazin-3(7H)-one (Q-84), and 8-(2-fluorobenzyl)-2-((5-methylfuran-2-yl)methyl)-6-phenylimidazo[1,2-a]pyrazin-3(7H)-one (Q-85) was obtained using a luciferase expressed in vitro as described in the following. The nanoKAZ DNA template was cloned into Thermo Scientific pT7CFE1-based vector and nanoKAZ was expressed using ThermoFisher Scientific 1-Step Human Coupled IVT Kit—DNA (ref. 88881) according to the manufacturer instructions. The resulting reaction mix was diluted 400 times in buffer (DPBS (Gibco)+0.1% (v/v) Tween 20) and conserved at −80° C. The screening of the imidazo[1,2-a]pyrazin-3(7H)-ones was performed in 96 well plates using 50 μL/well of a 1/20 dilution in DPBS (Gibco)+0.1% (v/v) Tween 20 of the nanoKAZ solution.
To illustrate the bioluminescence properties improvement achieved for many of the imidazo[1,2-a]pyrazin-3(7H)-ones described here, four values are provided in Table 1: maximum intensity (V1), signal half-life (V2), area under the curve for ten minutes (V3), and area under the curve for two hours (V4), normalized using furimazine (Q-1) as a reference.
The bioluminescence properties of the tested compounds are considered to be improved when at least one of the values V1-V4 is above 1, and when none of the V1-V4 values is 0.05 or below.
By following the hydrolysis protocol described above, the following imidazo[1,2-a]pyrazin-3(7H)-ones luciferins Q were made in situ from the corresponding O-protected imidazo[1,2-a]pyrazines P and evaluated for their bioluminescence properties (maximum intensity (V1), signal half-life (V2), area under the curve for […], normalized using furimazine (Q-1) as a reference): […]

Structure (SMILES)	V1: maximum intensity, normalized using furimazine (Q-1) as a reference	V3: area under the curve for ten minutes, normalized using furimazine (Q-1) as a reference	V4: area under the curve for two hours, normalized using furimazine (Q-1) as a reference
CCc1ccc(Cc2nc3c(Cc4ccccc4)[nH]c(-c4ccccc4)cn-3c2=O)o1 [Q-12, 8-benzyl-2-((5-ethylfuran-2-yl)methyl)-6-phenylimidazo[1,2-a]pyrazin-3(7H)-one]	2.28	2.2	1.28
Cc1cccc(Cc2nc3c(Cc4ccccc4)[nH]c(-c4ccccc4)cn-3c2=O)c1 [Q-14, 8-benzyl-2-(3-methylbenzyl)-6-phenylimidazo[1,2-a]pyrazin-3(7H)-one]	1.8	1.66	0.96
Cc1cc(Cc2nc3c(Cc4ccccc4)[nH]c(-c4ccccc4)cn-3c2=O)oc1C [Q-16, 8-benzyl-2-((4,5-dimethylfuran-2-yl)methyl)-6-phenylimidazo[1,2-a]pyrazin-3(7H)-one]	2.07	1.88	0.93
COc1cccc(Cc2nc3c(Cc4ccccc4)[nH]c(-c4ccccc4)cn-3c2=O)c1 [Q-18, 8-benzyl-2-(3-methoxybenzyl)-6-phenylimidazo[1,2-a]pyrazin-3(7H)-one]	1.53	1.41	0.97
O=c1c(Cc2ccccc2)nc2c(Cc3ccccc3)[nH]c(-c3ccccc3F)cn1-2 [Q-20, 2,8-dibenzyl-6-(2-fluorophenyl)imidazo[1,2-a]pyrazin-3(7H)-one]	2	1.59	0.66
O=c1c(Cc2ccco2)nc2c(Cc3ccccc3)[nH]c(-c3ccccc3F)cn1-2 [Q-21, 8-benzyl-6-(2-fluorophenyl)-2-(furan-2-ylmethyl)imidazo[1,2-a]pyrazin-3(7H)-one]	1.39	1.33	1.08
O=c1c(Cc2ccco2)nc2c(Cc3ccccc3)[nH]c(-c3c(F)cccc3F)cn1-2 [Q-27, 8-benzyl-6-(2,6-difluorophenyl)-2-(furan-2-ylmethyl)imidazo[1,2-a]pyrazin-3(7H)-one]	1.04	1.02	0.97
O=c1c(Cc2ccc(C(F)(F)F)o2)nc2c(Cc3ccccc3)[nH]c(-c3ccccc3)cn1-2 [Q-28, 8-benzyl-6-phenyl-2-((5-(trifluoromethyl)furan-2-yl)methyl)imidazo[1,2-a]pyrazin-3(7H)-one]	1.31	1.11	0.62
O=c1c(Cc2ccccc2)nc2c(Cc3ccccc3)[nH]c(-c3c(F)cccc3F)cn1-2 [Q-29, 2,8-dibenzyl-6-(2,6-difluorophenyl)imidazo[1,2-a]pyrazin-3(7H)-one]	1.86	1.48	0.55
Cc1ccc(Cc2nc3c(Cc4ccccc4)[nH]c(-c4ccccc4F)cn-3c2=O)o1 [Q-34, 8-benzyl-6-(2-fluorophenyl)-2-((5-methylfuran-2-yl)methyl)imidazo[1,2-a]pyrazin-3(7H)-one]	2.17	1.89	1.13
